PubChem BioAssay (NCI)
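How tested: cells in 96-well plates exposed to compound for 48 hours at five concentrations. At the TGI there is no net growth.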

What was measured:
Experiment in all cases: NCI anticancer screen, dose series, 48 h
[1] = test system: 786-0 renal
[2] = test system: A498 renal
[3] = test system: A549 NSCLC
[4] = test system: ACHN renal
[5] = test system: BT-549 breast
[6] = test system: CAKI-1 renal
[7] = test system: COLO 205 colon
[8] = test system: DU-145 prostate
[9] = test system: EKVX NSCLC
[10] = test system: HCC-2998 colon
[11] = test system: HCT-116 colon
[12] = test system: HCT-15 colon
[13] = test system: HL-60(TB) leukemia
[14] = test system: HOP-62 NSCLC
[15] = test system: HOP-92 NSCLC
[16] = test system: HS 578T breast
[17] = test system: HT29 colon
[18] = test system: IGROV1 ovarian
[19] = test system: K-562 leukemia
[20] = test system: KM12 colon
[21] = test system: LOX IMVI melanoma
[22] = test system: M14 melanoma
[23] = test system: MCF7 breast
[24] = test system: MDA-MB-231 breast
[25] = test system: MDA-MB-435
[26] = test system: MDA-N
[27] = test system: MOLT-4 leukemia
[28] = test system: NCI-H226 lung
[29] = test system: NCI-H23 lung
[30] = test system: NCI-H460 lung
[31] = test system: NCI-H522 lung
[32] = test system: NCI/ADR-RES ovarian
[33] = test system: OVCAR-3 ovarian
[34] = test system: OVCAR-4 ovarian
[35] = test system: OVCAR-5 ovarian
[36] = test system: OVCAR-8 ovarian
[37] = test system: PC-3 prostate
[38] = test system: RPMI-8226 leukemia
[39] = test system: RXF 393 renal
[40] = test system: SF-268 CNS
[41] = test system: SF-295 CNS
[42] = test system: SF-539 CNS
[43] = test system: SK-MEL-2 melanoma
[44] = test system: SK-MEL-28 melanoma
[45] = test system: SK-MEL-5 melanoma
[46] = test system: SK-OV-3 ovarian
[47] = test system: SN12C renal
[48] = test system: SNB-19 CNS
[49] = test system: SNB-75 CNS
[50] = test system: SR leukemia
[51] = test system: SW-620 colon
[52] = test system: T-47D breast
[53] = test system: TK-10 renal
[54] = test system: U251 CNS
[55] = test system: UACC-257 melanoma
[56] = test system: UACC-62 melanoma
[57] = test system: UO-31 renal
[58] = test system: CCRF-CEM leukemia
[59] = test system: MALME-3M melanoma

SC1CCCN(Cc2ccccc2)C1 (stereo not given)
TGI [1]: > 100 µM
TGI [2]: > 100 µM
TGI [3]: > 100 µM
TGI [4]: > 100 µM
TGI [5]: > 100 µM
TGI [6]: > 100 µM
TGI [7]: 33.7 µM
TGI [8]: > 100 µM
TGI [9]: > 100 µM
TGI [10]: 31.4 µM
TGI [11]: > 100 µM
TGI [12]: > 100 µM
TGI [13]: > 100 µM
TGI [14]: > 100 µM
TGI [15]: > 100 µM
TGI [16]: > 100 µM
TGI [17]: 45.8 µM
TGI [18]: > 100 µM
TGI [19]: 60.6 µM
TGI [20]: > 100 µM
TGI [21]: 34.7 µM
TGI [22]: 36.9 µM
TGI [23]: 39.4 µM
TGI [24]: > 100 µM
TGI [25]: > 100 µM
TGI [26]: > 100 µM
TGI [27]: 78.2 µM
TGI [28]: > 100 µM
TGI [29]: 81.5 µM
TGI [30]: 64.7 µM
TGI [31]: > 100 µM
TGI [32]: > 100 µM
TGI [33]: > 100 µM
TGI [34]: > 100 µM
TGI [35]: > 100 µM
TGI [36]: > 100 µM
TGI [37]: > 100 µM
TGI [38]: 46.6 µM
TGI [39]: > 100 µM
TGI [40]: > 100 µM
TGI [41]: > 100 µM
TGI [42]: > 100 µM
TGI [43]: > 100 µM
TGI [44]: > 100 µM
TGI [45]: 35.4 µM
TGI [46]: > 100 µM
TGI [47]: > 100 µM
TGI [48]: > 100 µM
TGI [49]: > 100 µM
TGI [50]: 71.5 µM
TGI [51]: 72.6 µM
TGI [52]: 94.1 µM
TGI [53]: > 100 µM
TGI [54]: > 100 µM
TGI [55]: > 100 µM
TGI [56]: > 100 µM
TGI [57]: > 100 µM

COc1ccc2c(c1OC)OCC(CN(C)C)C2=O (stereo not given)
TGI [1]: 25.9 µM
TGI [3]: > 63.9 µM
TGI [4]: 31.7 µM
TGI [5]: 38.7 µM
TGI [6]: 11.3 µM
TGI [58]: 8.54 µM
TGI [7]: 21.6 µM
TGI [8]: 34.5 µM
TGI [9]: 49.9 µM
TGI [10]: 33.7 µM
TGI [11]: 31.4 µM
TGI [12]: 36.5 µM
TGI [13]: 7.14 µM
TGI [14]: > 88.7 µM
TGI [15]: 11.3 µM
TGI [16]: > 87.4 µM
TGI [17]: 40.1 µM
TGI [18]: 35.4 µM
TGI [19]: 10.5 µM
TGI [20]: 33.9 µM
TGI [21]: 31.2 µM
TGI [22]: 31.5 µM
TGI [59]: 34.8 µM
TGI [23]: 27.5 µM
TGI [24]: 34.6 µM
TGI [25]: 34.3 µM
TGI [26]: 32.4 µM
TGI [27]: 5.32 µM
TGI [28]: > 67.4 µM
TGI [29]: 35.8 µM
TGI [30]: > 66.6 µM
TGI [31]: 0.472 µM
TGI [32]: 72.1 µM
TGI [33]: 48.5 µM
TGI [34]: 60.5 µM
TGI [35]: 35.7 µM
TGI [36]: 50.2 µM
TGI [37]: 34.6 µM
TGI [38]: 8.56 µM
TGI [39]: 30.5 µM
TGI [40]: 53.2 µM
TGI [41]: > 100 µM
TGI [42]: 36.7 µM
TGI [43]: 30.5 µM
TGI [44]: 32.3 µM
TGI [45]: 31.6 µM
TGI [46]: > 57.3 µM
TGI [47]: 34 µM
TGI [48]: > 100 µM
TGI [49]: 52.4 µM
TGI [50]: 10.5 µM
TGI [51]: 26.4 µM
TGI [52]: > 62.2 µM
TGI [53]: 34.4 µM
TGI [54]: 34.1 µM
TGI [55]: 30.8 µM
TGI [56]: 32.1 µM
TGI [57]: 32.5 µM
